Experimental data published in US12503463B2, “Aliphatic acid amide derivative” (Sumitomo Pharma Co., Ltd., priority 2019, dated 2025).

Tested on: not listed separately
Test: Test 3-1: metabolic stability test in human hepatic microsome
Type: in vitro ADME
Settings: Test 3-1: microsome 0.1 mg/mL, test compound 0.1 μmol/L, 37° C., 30 minutes
Procedure: Test 3-1: Metabolic Stability Test in Human Hepatic Microsome
The metabolic stability of the present compound in human hepatic microsome was evaluated as mentioned below. Human hepatic microsome was obtained from Xenontech. Human hepatic microsome, NADPH, and each test compound were mixed in 25 mmol/L phosphate buffer solution (pH 7.4) to reach the following concentrations as shown below, and the mixture was incubated at 37° C. for 30 minutes. • Human hepatic microsome: 0.1 mg/mL • NAPDH: 3.2 mmol/L • Test compound: 0.1 μmol/L
The residual ratio of test compound in each sample after 30 minutes was measured by LC-MS, and the metabolic stability in human hepatic microsome was calculated from the following formula. Metabolic stability in human hepatic microsome(mL/min/mg protein)=−LN(residual ratio)/30/0.1

Metabolic stability in human hepatic microsome [mL/min/mg protein] | Compound
<0.05 | CCN(CCN1CCC(c2noc3cc(F)ccc23)CC1)C(=O)C(C)CO (stereo not drawn) [Example 37]
<0.05 | CCN(CCN1CCC(c2n[nH]c3cc(F)ccc23)CC1)C(=O)C(C)O (stereo not drawn) [Example 19, N-Ethyl-N-{2-[4-(6-fluoro-1H-indazol-3-yl)piperidin-1-yl]ethyl}-2-hydroxypropanamide]
<0.05 | CCN(CCN1CCC(c2noc3cc(F)ccc23)CC1)C(=O)C1CN(C(C)=O)CCC1O (stereo not drawn) [Example 74]
<0.05 | CCN(CCN1CCC(c2noc3cc(F)ccc23)CC1)C(=O)C1(O)CCOCC1 [Example 11]
<0.05 | CCN(CCN1CCC(c2noc3cc(F)ccc23)CC1)C(=O)C(F)(F)CO [Example 36]
<0.05 | CCN(CCN1CCC(c2noc3cc(F)ccc23)CC1)C(=O)[C@H]1CC[C@H](O)CC1 [Example 43]
0.054 | CCN(CCN1CCC(c2noc3cc(F)c(C)cc23)CC1)C(=O)[C@H](C)O [Example 13]
<0.05 | CCN(CCN1CCC(c2c[nH]c3ccccc23)CC1)C(=O)[C@H](C)O [Example 23, (2S)-N-Ethyl-2-hydroxy-N-{2-[4-(1H-indol-3-yl)piperidin-1-yl]ethyl}propanamide]
<0.05 | CCN(CCN1CCC(c2noc3cc(F)ccc23)CC1)C(=O)C1CN(C)CC1O (stereo not drawn) [Example 75, N-Ethyl-N-{2-[4-(6-fluoro-1,2-benzoisoxazol-3-yl)piperidin-1-yl]ethyl}-4-hydroxy-1-methylpyrrolidine-3-carboxamide]
0.057 | CCN(CCN1CCC(c2noc3cc(F)ccc23)CC1)C(=O)C1(O)CCCN(C(C)=O)C1 (stereo not drawn) [Example 72]
<0.05 | CCN(CCCN1CCC(c2noc3cc(F)ccc23)CC1)C(=O)[C@H](C)O [Example 38]
<0.05 | CC(C)N(CCN1CCC(c2noc3cc(F)ccc23)CC1)C(=O)[C@@H](C)O [Example 42]
0.079 | CCN(CCN1CCC(c2noc3ccc(C)cc23)CC1)S(=O)(=O)CCO [Example 59]
<0.05 | CCN(CCN1CCC(c2noc3cc(F)ccc23)CC1)C(=O)C1(O)CCNC1 (stereo not drawn) [Example 70]
<0.05 | CCN(CCN1CCC(c2noc3cc(F)ccc23)CC1)C(=O)C(C)O (stereo not drawn) [Example 4]
0.097 | CCN(CCN1CCC(n2ncc3cc(F)ccc32)CC1)S(=O)(=O)C(C)CO (stereo not drawn) [Example 64]
<0.05 | CCN(CCN1CCC(n2ncc3cc(F)ccc32)CC1)S(=O)(=O)CCO [Example 63]
<0.05 | CC(O)C(=O)N(CCN1CCC(c2noc3cc(F)ccc23)CC1)C(C)C (stereo not drawn) [Example 31]
<0.05 | CCN(CCN1CCC(c2noc3cc(F)ccc23)CC1)C(=O)C1(O)CCCNC1 (stereo not drawn) [Example 69]

Compound | Metabolic stability in human hepatic microsome [mL/min/mg protein]
CCN(CCN1CCC(c2noc3cc(F)ccc23)CC1)C(=O)C(O)CN (stereo not drawn) [Example 65, 3-Amino-N-ethyl-N-{2-[4-(6-fluoro-1,2-benzoisoxazol-3-yl)piperidin-1-yl]ethyl}-2-hydroxypropanamide] | <0.05

Molecular target: T1, human D2 receptor (Homo sapiens, UniProt P14416)
T1 construct: purchased PerkinElmer, Inc; host or cells: CHO cells (membrane fraction)
Test: Test 1: binding activity for human D2 receptor ([3H]Spiperone, CHO cell membrane fraction)
Settings: ratio of Ki values
Procedure: Ki value was evaluated from dissociation constant which was calculated from saturated binding tests, and a substrate concentration, and it was used as an index for binding affinity.

T1 sequence (P14416 whole entry): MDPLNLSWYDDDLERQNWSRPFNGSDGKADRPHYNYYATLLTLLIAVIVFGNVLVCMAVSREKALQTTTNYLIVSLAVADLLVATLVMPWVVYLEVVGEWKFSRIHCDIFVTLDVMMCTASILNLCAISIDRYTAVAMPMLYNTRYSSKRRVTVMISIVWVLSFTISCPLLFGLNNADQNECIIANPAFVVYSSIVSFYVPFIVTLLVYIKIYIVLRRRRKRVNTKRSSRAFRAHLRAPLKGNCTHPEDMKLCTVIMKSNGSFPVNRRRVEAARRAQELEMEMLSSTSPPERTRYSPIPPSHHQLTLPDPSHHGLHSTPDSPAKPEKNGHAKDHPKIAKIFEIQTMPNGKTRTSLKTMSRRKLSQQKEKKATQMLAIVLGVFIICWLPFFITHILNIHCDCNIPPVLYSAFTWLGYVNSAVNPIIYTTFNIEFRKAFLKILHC

Compound | D2 Ki/5-HT2A Ki | D2 Ki/5-HT7 Ki
CCN(CCN1CCC(c2noc3cc(F)ccc23)CC1)S(=O)(=O)C(C)CO (stereo not drawn) [Example 52] | >34 | >30
CCN(CCN1CCC(c2noc3cc(F)ccc23)CC1)C(=O)C(O)CN (stereo not drawn) [Example 65, 3-Amino-N-ethyl-N-{2-[4-(6-fluoro-1,2-benzoisoxazol-3-yl)piperidin-1-yl]ethyl}-2-hydroxypropanamide] | 48 | 26
